Measured values from ChEMBL document CHEMBL1124494, “Synthesis and biological evaluation of S-adenosyl-1,12-diamino-3-thio-9-azadodecane, a multisubstrate adduct inhibitor of spermine synthase” (J Med Chem, 1989).

The compounds below were run against T1, Spermidine synthase (Rattus norvegicus, UniProt Q99MI5) (assay: Inhibition of spermidine synthase activity was evaluated). Details: read-out: I50.
T1 sequence (Q99MI5 whole entry): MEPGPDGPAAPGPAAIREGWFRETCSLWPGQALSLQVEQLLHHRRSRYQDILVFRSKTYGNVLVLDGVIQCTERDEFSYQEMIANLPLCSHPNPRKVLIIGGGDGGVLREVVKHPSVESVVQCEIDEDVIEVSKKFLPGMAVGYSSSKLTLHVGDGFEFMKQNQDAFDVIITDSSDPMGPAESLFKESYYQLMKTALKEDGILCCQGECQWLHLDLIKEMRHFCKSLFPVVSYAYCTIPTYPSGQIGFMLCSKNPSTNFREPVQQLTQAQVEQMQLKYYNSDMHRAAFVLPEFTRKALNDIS
`NCCCNCCCCCC(CCN)SC[C@H]1OC(n2cnc3c(N)ncnc32)[C@H](O)[C@@H]1O` (stereo partly drawn) was tested, and the IC50 was > 13 µM.
`CCCCCC(CC)SC[C@H]1OC(n2cnc3c(N)ncnc32)[C@H](O)[C@@H]1O` (stereo partly drawn) was tested, and the IC50 was > 500 µM.
`CCCNCCCCCC(CC)SC[C@H]1OC(n2cnc3c(N)ncnc32)[C@H](O)[C@@H]1O` (stereo partly drawn) was tested, and the IC50 was > 500 µM.
